According to ChEMBL document CHEMBL5046234, “Discovery of novel TrkA allosteric inhibitors: Structure-based virtual screening, biological evaluation and preliminary SAR studies” (Eur J Med Chem, 2022):
One block for each compound: values may come before it.

Key:
BaF3 [1] = assay: Antiproliferative activity against mouse BaF3 cells expressing CD74 fused TRKA assessed as cell growth inhibition incubated for 72 hrs by CCK8 assay; format: functional, cell-based; conditions: BaF3, 72 h
[2] = target: BDNF/NT-3 growth factors receptor (Homo sapiens, UniProt Q16620); assay: Inhibition of TRKB (unknown origin) by PathHunter Enzyme Fragment Complementation assay
[3] = target: High affinity nerve growth factor receptor (Homo sapiens) (UniProt P04629); assay: Inhibition of CD74 fused TRKA (unknown origin) expressed in mouse BaF3 cells assessed as inhibition of AKT phosphorylation by western blot analysis; format: cell-based; conditions: dose 0.08-50 µM
BaF3 [4] = assay: Antiproliferative activity against mouse BaF3 cells assessed as cell growth inhibition incubated for 72 hrs by CCK8 assay; format: functional, cell-based; conditions: BaF3, 72 h
BaF3 [5] = assay: Antiproliferative activity against mouse BaF3 cells expressing EML4 fused TRKC assessed as cell growth inhibition incubated for 72 hrs by CCK8 assay; format: functional, cell-based; conditions: BaF3, 72 h
[6] = target: High affinity nerve growth factor receptor (Homo sapiens) (UniProt P04629); assay: Inhibition of CD74 fused TRKA (unknown origin) expressed in mouse BaF3 cells assessed as inhibition of ERK phosphorylation by western blot analysis; format: cell-based
[7] = target: High affinity nerve growth factor receptor (Homo sapiens) (UniProt P04629); assay: Inhibition of CD74 fused TRKA (unknown origin) expressed in mouse BaF3 cells assessed as inhibition of PLCgamma1 phosphorylation by western blot analysis; format: cell-based; conditions: dose 0.08-50 µM
BaF3 [8] = assay: Antiproliferative activity against mouse BaF3 cells expressing QKI fused TRKB assessed as cell growth inhibition incubated for 72 hrs by CCK8 assay; format: functional, cell-based; conditions: BaF3, 72 h
BaF3 [9] = assay: Antiproliferative activity against mouse BaF3 cells expressing MPRIP fused TRKA assessed as cell growth inhibition incubated for 72 hrs by CCK8 assay; format: functional, cell-based; conditions: BaF3, 72 h
[10] = target: High affinity nerve growth factor receptor (Homo sapiens) (UniProt P04629); assay: Inhibition of CD74 fused TRKA (unknown origin) autophosphorylation expressed in mouse BaF3 cells by western blot analysis; format: cell-based; conditions: dose 0.08-50 µM

High affinity nerve growth factor receptor (Homo sapiens), sequence (P04629 33-796 limits assumed): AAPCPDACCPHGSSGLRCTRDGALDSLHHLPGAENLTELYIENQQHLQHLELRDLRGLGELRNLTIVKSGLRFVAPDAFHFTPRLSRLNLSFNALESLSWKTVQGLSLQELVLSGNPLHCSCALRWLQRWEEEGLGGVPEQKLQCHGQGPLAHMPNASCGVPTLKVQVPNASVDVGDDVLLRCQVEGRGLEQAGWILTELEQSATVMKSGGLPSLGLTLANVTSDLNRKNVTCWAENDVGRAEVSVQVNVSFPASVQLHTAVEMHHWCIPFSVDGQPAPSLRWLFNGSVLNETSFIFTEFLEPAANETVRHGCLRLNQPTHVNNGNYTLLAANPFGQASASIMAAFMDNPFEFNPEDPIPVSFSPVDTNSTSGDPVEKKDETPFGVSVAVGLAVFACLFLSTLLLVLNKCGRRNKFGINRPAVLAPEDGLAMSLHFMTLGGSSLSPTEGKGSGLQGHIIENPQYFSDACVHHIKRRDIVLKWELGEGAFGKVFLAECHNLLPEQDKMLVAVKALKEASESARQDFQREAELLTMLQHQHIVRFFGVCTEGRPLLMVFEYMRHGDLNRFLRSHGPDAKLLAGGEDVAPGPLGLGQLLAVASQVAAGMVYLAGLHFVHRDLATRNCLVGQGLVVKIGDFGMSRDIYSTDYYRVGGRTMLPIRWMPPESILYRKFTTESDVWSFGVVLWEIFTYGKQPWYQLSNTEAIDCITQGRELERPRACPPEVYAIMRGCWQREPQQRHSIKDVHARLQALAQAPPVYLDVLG
BDNF/NT-3 growth factors receptor, sequence (Q16620 whole entry, the tested form may be a part): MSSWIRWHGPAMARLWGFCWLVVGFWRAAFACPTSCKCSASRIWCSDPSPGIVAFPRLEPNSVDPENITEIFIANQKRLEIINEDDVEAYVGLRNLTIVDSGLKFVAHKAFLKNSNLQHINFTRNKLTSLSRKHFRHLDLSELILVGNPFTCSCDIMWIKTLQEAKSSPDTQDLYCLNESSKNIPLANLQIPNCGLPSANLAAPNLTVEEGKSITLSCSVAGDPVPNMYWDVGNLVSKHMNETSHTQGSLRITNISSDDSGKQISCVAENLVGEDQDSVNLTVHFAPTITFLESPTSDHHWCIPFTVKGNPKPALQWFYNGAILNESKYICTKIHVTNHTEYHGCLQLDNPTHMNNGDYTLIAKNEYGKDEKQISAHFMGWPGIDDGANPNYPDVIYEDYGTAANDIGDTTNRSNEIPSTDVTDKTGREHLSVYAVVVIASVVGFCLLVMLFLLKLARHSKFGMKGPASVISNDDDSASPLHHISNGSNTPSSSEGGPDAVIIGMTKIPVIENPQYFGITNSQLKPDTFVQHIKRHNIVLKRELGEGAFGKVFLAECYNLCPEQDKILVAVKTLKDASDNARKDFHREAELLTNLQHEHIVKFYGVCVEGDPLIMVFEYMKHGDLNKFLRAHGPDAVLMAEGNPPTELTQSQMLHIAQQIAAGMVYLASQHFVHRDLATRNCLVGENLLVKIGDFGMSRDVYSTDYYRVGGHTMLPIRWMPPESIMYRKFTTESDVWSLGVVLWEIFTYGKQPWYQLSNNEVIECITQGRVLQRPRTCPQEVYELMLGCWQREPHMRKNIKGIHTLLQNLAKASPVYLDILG

Compound: CN1CCN(c2cc(-c3ccccc3)c(NC(=O)c3cc(N4CCCC4=O)c(Cl)cc3Cl)cn2)CC1
- IC50 (BaF3 [1]): > 10 µM

Compound: Cc1ncc(NC(=O)NC2c3ccccc3-c3ccccc32)c(-c2ccccc2)n1
- IC50 [2]: 81 µM

Compound: Cc1ccc(C(=O)Nc2ccc(N3CCCC3=O)nc2)cc1N1CCCC1=O
- IC50 (BaF3 [1]): 7.23 µM

The remaining lines, values ahead:

- IC50 (BaF3 [1]): 1.83 µM
Compound: CN1CCN(c2ccc(NC(=O)c3cc(N4CCCC4=O)c(Cl)cc3Cl)cn2)CC1

- IC50 (BaF3 [1]): 1.55 µM
Compound: CN1CCN(c2ccc(NC(=O)c3ccc(Cl)c(N4CCCC4=O)c3)cn2)CC1

- IC50 (BaF3 [1]): 1.99 µM
Compound: Cc1ccc(C(=O)Nc2ccc(N3CCN(C)CC3)nc2)cc1N1CCCC1=O

- inhibition [3]: Dose-Dependent Effect
- IC50 (BaF3 [4]): > 10 µM
- IC50 (BaF3 [5]): > 10 µM
- IC50 (BaF3 [1]): 2.91 µM
- inhibition [6]: Dose-Dependent Effect
- inhibition [7]: Dose-Dependent Effect
- IC50 (BaF3 [8]): 6.17 µM
- IC50 (BaF3 [9]): 3.32 µM
- inhibition [10]: Dose-Dependent Effect
Compound: Cc1ccc(C(=O)Nc2ccc(N3CCN(C4CCCC4)C3=O)nc2)cc1N1CCCC1=O
